From patent publication US8956832B2, “Cells expressing anti-GD2 antibodies and methods related thereto” (Morphotek, Inc., priority 2008, dated 2015)

System: AB527-expressing cells
Experiment: Effect of valeric acid on cell growth and antibody production
Type: cell-based, Chinese Hamster
Settings: for Maximum Viable Cell Density: 14 days; for Doubling Time (DT): in h (unit assumed)
Description: To determine the effect of valeric acid on cell growth, AB527-expressing cells were cultured in GIBCO-CD-CHO complete medium supplemented with valeric acid to a concentration of 0 mM, 1 mM, 2 mM, 4 mM, or 8 mM. Cells were cultured for 14 days and viable cell density, percent viability, and integral viable cell density were determined using a CEDEX automated cell counter on days 0, 3, 5, 7, 10, 13, and 14. Antibody production was determined for each group of cultured cells on day 14 by protein A HPLC.

## CCCCC(=O)O [Valeric Acid, valeric acid]
1 mM valeric acid
  Integral of Viable Cell Density (IVC): 6.74E+7 cells · day/mL
  Specific Antibody Production Rate (Qp): 58.44 mg/10^9 cells/day
  Maximum Viable Cell Density: 94.60 10^5/mL
  Doubling Time (DT): 24.17
1 mM valeric acid, day 14
  Final Antibody Titer: 4137.1 mg/L
  antibody titer higher than that of the control culture: 36%
1 mM valeric acid, day 14, listed as valeric acid
  Final Antibody Titer: 4137 mg/L
2 mM valeric acid
  Integral of Viable Cell Density (IVC): 6.55E+7 cells · day/mL
  Specific Antibody Production Rate (Qp): 54.45 mg/10^9 cells/day
  Maximum Viable Cell Density: 81.00 10^5/mL
  Doubling Time (DT): 24.17
2 mM valeric acid, day 14
  Final Antibody Titer: 3706.7 mg/L
4 mM valeric acid
  Integral of Viable Cell Density (IVC): 6.72E+7 cells · day/mL
  Specific Antibody Production Rate (Qp): 52.24 mg/10^9 cells/day
  Maximum Viable Cell Density: 77.40 10^5/mL
  Doubling Time (DT): 24.17
4 mM valeric acid, day 14
  Final Antibody Titer: 3600.1 mg/L
8 mM valeric acid
  Integral of Viable Cell Density (IVC): 4.76E+7 cells · day/mL
  Specific Antibody Production Rate (Qp): 56.16 mg/10^9 cells/day
  Maximum Viable Cell Density: 54.40 10^5/mL
  Doubling Time (DT): 24.17
8 mM valeric acid, at day 7
  maximum cell density: 5.4×10^6 cells/mL
  viability: 67.4%
8 mM valeric acid, day 14
  Final Antibody Titer: 2760.4 mg/L
